Data from article PMC5748644, “Synthesis and In Vitro Cytotoxicity of the 4-(Halogenoanilino)-6-bromoquinazolines and Their 6-(4-Fluorophenyl) Substituted Derivatives as Potential Inhibitors of Epidermal Growth Factor Receptor Tyrosine Kinase” (Pharmaceuticals, 2017).

Biological target: T1, epidermal growth factor receptor tyrosine kinase (EGFR-TK) (Homo sapiens, UniProt P00533)
T1 construct: commercial purified EGFR (Sigma-Aldrich), called both purified Epidermal Growth Factor Receptor and purified recombinant EGFR tyrosine kinase
T1 sequence (P00533 25-1210): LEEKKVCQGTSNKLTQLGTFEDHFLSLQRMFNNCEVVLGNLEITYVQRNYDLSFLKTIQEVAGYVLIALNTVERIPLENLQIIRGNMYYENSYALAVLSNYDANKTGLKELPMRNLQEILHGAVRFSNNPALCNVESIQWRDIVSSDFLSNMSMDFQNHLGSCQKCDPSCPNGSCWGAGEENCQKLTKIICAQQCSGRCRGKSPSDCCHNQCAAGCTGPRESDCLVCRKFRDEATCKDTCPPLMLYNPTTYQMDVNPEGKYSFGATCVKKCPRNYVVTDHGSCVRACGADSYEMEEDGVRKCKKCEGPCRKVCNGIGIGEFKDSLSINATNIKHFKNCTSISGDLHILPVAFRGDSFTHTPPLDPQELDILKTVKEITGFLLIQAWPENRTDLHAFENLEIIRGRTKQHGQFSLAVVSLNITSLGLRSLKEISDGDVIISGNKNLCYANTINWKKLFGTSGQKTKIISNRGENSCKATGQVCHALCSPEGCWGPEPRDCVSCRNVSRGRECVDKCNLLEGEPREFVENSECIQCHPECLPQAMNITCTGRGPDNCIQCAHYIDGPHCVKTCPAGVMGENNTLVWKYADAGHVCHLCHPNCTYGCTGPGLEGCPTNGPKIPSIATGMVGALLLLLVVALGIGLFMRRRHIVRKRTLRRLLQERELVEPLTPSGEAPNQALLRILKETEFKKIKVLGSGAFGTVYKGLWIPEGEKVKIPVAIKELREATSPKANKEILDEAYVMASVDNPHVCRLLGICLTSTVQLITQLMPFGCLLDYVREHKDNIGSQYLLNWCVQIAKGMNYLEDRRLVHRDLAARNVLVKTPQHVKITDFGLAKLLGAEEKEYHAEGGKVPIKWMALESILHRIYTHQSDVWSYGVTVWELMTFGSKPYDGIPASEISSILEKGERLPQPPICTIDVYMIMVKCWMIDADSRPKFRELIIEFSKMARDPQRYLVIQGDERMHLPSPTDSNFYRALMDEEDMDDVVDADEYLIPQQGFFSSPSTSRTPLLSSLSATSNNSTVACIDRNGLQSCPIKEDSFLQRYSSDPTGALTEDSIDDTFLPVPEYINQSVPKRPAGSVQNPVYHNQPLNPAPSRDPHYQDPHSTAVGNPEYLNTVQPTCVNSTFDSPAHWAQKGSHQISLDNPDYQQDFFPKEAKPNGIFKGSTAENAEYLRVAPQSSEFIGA
Assay: ELISA kinase assay, poly(Glu,Tyr) phosphorylation, anti-phosphotyrosine antibody, […] nm
Format: biochemical

Row | IC50 | Structure (SMILES)
1 | 70 nM | Fc1ccccc1Nc1nc(-c2ccc(Cl)cc2)nc2ccc(Br)cc12 [3g, 6-Bromo-2-(4-chlorophenyl)-N-(2-fluorophenyl)quinazolin-4-amine]
2 | 37.7 nM | Fc1ccc(Nc2nc(-c3ccc(Cl)cc3)nc3ccc(Br)cc23)c(F)c1 [3l, 6-Bromo-2-(4-chlorophenyl)-N-(2,4-difluorophenyl)quinazolin-4-amine]
3 | 59.2 nM | Fc1ccc(-c2ccc3nc(-c4ccc(Cl)cc4)nc(Nc4ccc(F)cc4F)c3c2)cc1 [4l, [2-(4-Chlorophenyl)-6-(4-fluorophenyl)quinazolin-4-yl]-2,4-difluorophenylamine]
